Experiments:
[1] = tested on: control sera (pooled serum of ten healthy LUMC hospital workers; commercial negative donor pooled serum from the Dutch bloodbank); type: binding, human; set-up: Binding of Control serum LUMC to linear peptides / Binding of Control serum Blood-bank to linear peptides / Binding of Control serum LUMC to looped peptides / Binding of Control Serum Blood-Bank to Looped peptides / Binding of Control serum LUMC to linear peptides of the protein M of SARS-CoV Urbani / Binding of Control serum Blood-bank to linear peptides of the protein M of SARS-CoV Urbani / Binding of Control serum LUMC to looped peptides of the protein M of SARS-CoV Urbani / Binding of Control Serum Blood-Bank to Looped peptides of the protein M of SARS-CoV Urbani: unit not given here
[2] = tested on: rabbit serum obtained by immunizing a rabbit with the SARS-CoV strain Frankfurt 1; type: binding; set-up: Binding of a rabbit serum to linear peptides / Binding of a rabbit serum to looped peptides / Rabbit serum linear peptides / Rabbit serum looped peptides / Binding of a rabbit serum to linear peptides of protein N of SARS-CoV Urbani (Rabbit serum linear peptides) / Binding of a rabbit serum to looped/cyclic peptides of protein N of SARS-CoV Urbani (Rabbit serum looped peptides): unit not given here
[3] = tested on: antibodies in sera from SARS patients (sera 1a, 1b, 2, 6, 37, 62, London, SARS-yellow, SARS-green); type: binding, human; set-up: Binding of serum 6 to linear peptides of protein X1 of SARS-CoV Urbani / Binding of serum 37 to linear peptides of protein X1 of SARS-CoV Urbani / Binding of serum 6 to looped/cyclic peptide (PEPSCAN-ELISA) / Binding of serum 37 to looped/cyclic peptide (PEPSCAN-ELISA) / Binding of serum 37 to looped/cyclic peptides of protein X1 of SARS-CoV Urbani / Binding of serum 6 to linear peptides of protein X2 / Binding of serum 37 to linear peptides of protein X2 / Binding of serum 37 to looped/cyclic peptides of protein X2 of SARS-CoV Urbani / Binding of serum 6 to linear peptides of protein M of SARS-CoV Urbani / Binding of serum 37 to linear peptides of protein M of SARS-CoV Urbani / Binding of serum 6 to looped/cyclic peptides of protein M of SARS-CoV Urbani / Binding of serum 37 to looped/cyclic peptides of protein M of SARS-CoV Urbani / Binding of serum 6 to linear peptides of protein X3 of SARS-CoV Urbani / Binding of serum 37 to linear peptides of protein X3 of SARS-CoV Urbani / Binding of serum 37 to looped/cyclic peptides of protein X3 of SARS-CoV Urbani / Binding of serum 6 to linear peptides of protein X4 of SARS-CoV Urbani / Binding of serum 37 to linear peptides of protein X4 of SARS-CoV Urbani / Binding of serum 37 to looped/cyclic peptides of protein X4 of SARS-CoV Urbani / Binding of serum 6 to linear peptides of protein X5 of SARS-CoV Urbani / Binding of serum 37 to linear peptides of protein X5 of SARS-CoV Urbani / Binding of serum 37 to looped/cyclic peptides of protein X5 of SARS-CoV Urbani / Binding of serum 6 to linear peptides of protein N of SARS-CoV Urbani / Binding of serum 37 to linear peptides of protein N of SARS-CoV Urbani / Binding of serum 6 to linear peptide (PEPSCAN-ELISA) / Binding of serum 1a to looped/cyclic peptides of protein N of SARS-CoV Urbani / Binding of serum 1b to looped/cyclic peptides of protein N of SARS-CoV Urbani / Binding of serum 2 to looped/cyclic peptides of protein N of SARS-CoV Urbani / Binding of serum 6 to looped/cyclic peptides of protein N of SARS-CoV Urbani / Binding of serum 37 to looped/cyclic peptides of protein N of SARS-CoV Urbani / Binding of serum 62 to looped/cyclic peptides of protein N of SARS-CoV Urbani / Binding of serum London to looped/cyclic peptides of protein N of SARS-CoV Urbani / Binding of serum SARS-green to looped/cyclic peptides of protein N of SARS-CoV Urbani: unit not given here

Sequence: PAGGALIARCWYLHE
- Binding of Control Serum Blood-Bank to Looped peptides [1]: 0.8
- Binding of Control serum Blood-bank to linear peptides [1]: 0.7
- Binding of Control serum LUMC to linear peptides [1]: 0.4
- Binding of Control serum LUMC to looped peptides [1]: 0.5
- Rabbit serum linear peptides [2]: 0.5
- Rabbit serum looped peptides [2]: 0.5
- Binding of serum 1a to linear peptides of protein X5 of SARS-CoV Urbani [3]: 0.8
- Binding of serum 1a to looped/cyclic peptides of protein X5 of SARS-CoV Urbani [3]: 0.8
- Binding of serum 1b to linear peptides of protein X5 of SARS-CoV Urbani [3]: 0.9
- Binding of serum 1b to looped/cyclic peptides of protein X5 of SARS-CoV Urbani [3]: 0.6
- Binding of serum 2 to linear peptides of protein X5 of SARS-CoV Urbani [3]: 0.6
- Binding of serum 2 to looped/cyclic peptides of protein X5 of SARS-CoV Urbani [3]: 0.6
- Binding of serum 6 to linear peptides of protein X5 of SARS-CoV Urbani [3]: 0.8
- Binding of serum 6 to looped/cyclic peptides of protein X5 of SARS-CoV Urbani [3]: 0.4
- Binding of serum 37 to linear peptides of protein X5 of SARS-CoV Urbani [3]: 0.9
- Binding of serum 37 to looped/cyclic peptides of protein X5 of SARS-CoV Urbani [3]: 0.7
- Binding of serum 62 to linear peptides of protein X5 of SARS-CoV Urbani [3]: 0.9
- Binding of serum 62 to looped/cyclic peptides of protein X5 of SARS-CoV Urbani [3]: 0.7
- Binding of serum London to linear peptides of protein X5 of SARS-CoV Urbani [3]: 0.7
- Binding of serum London to looped/cyclic peptides of protein X5 of SARS-CoV Urbani [3]: 0.3
- Binding of serum SARS-green to linear peptides of protein X5 of SARS-CoV Urbani [3]: 0.9
- Binding of serum SARS-green to looped/cyclic peptides of protein X5 of SARS-CoV Urbani [3]: 0.6
- Binding of serum SARS-yellow to linear peptides of protein X5 of SARS-CoV Urbani [3]: 0.3
- Binding of serum SARS-yellow to looped/cyclic peptides of protein X5 of SARS-CoV Urbani [3]: 0.5

Sequence: PCPSGTYEGNSPFHP
- Binding of Control Serum Blood-Bank to Looped peptides [1]: 0.7
- Binding of Control serum Blood-bank to linear peptides [1]: 0.6
- Binding of Control serum LUMC to linear peptides [1]: 0.5
- Binding of Control serum LUMC to looped peptides [1]: 0.9
- Rabbit serum linear peptides [2]: 0.6
- Rabbit serum looped peptides [2]: 0.4
- Binding of serum 1a to linear peptides of protein X4 of SARS-CoV Urbani [3]: 0.7
- Binding of serum 1a to looped/cyclic peptides of protein X4 of SARS-CoV Urbani [3]: 0.7
- Binding of serum 1b to linear peptides of protein X4 of SARS-CoV Urbani [3]: 0.5
- Binding of serum 1b to looped/cyclic peptides of protein X4 of SARS-CoV Urbani [3]: 0.1
- Binding of serum 2 to linear peptides of protein X4 of SARS-CoV Urbani [3]: 0.4
- Binding of serum 2 to looped/cyclic peptides of protein X4 of SARS-CoV Urbani [3]: 0.7
- Binding of serum 6 to linear peptides of protein X4 of SARS-CoV Urbani [3]: 0.5
- Binding of serum 6 to looped/cyclic peptides of protein X4 of SARS-CoV Urbani [3]: 0.5
- Binding of serum 37 to linear peptides of protein X4 of SARS-CoV Urbani [3]: 0.7
- Binding of serum 37 to looped/cyclic peptides of protein X4 of SARS-CoV Urbani [3]: 0.7
- Binding of serum 62 to linear peptides of protein X4 of SARS-CoV Urbani [3]: 0.7
- Binding of serum 62 to looped/cyclic peptides of protein X4 of SARS-CoV Urbani [3]: 0.7
- Binding of serum London to linear peptides of protein X4 of SARS-CoV Urbani [3]: 0.7
- Binding of serum London to looped/cyclic peptides of protein X4 of SARS-CoV Urbani [3]: 0.3
- Binding of serum SARS-green to linear peptides of protein X4 of SARS-CoV Urbani [3]: 0.5
- Binding of serum SARS-green to looped/cyclic peptides of protein X4 of SARS-CoV Urbani [3]: 0.4
- Binding of serum SARS-yellow to linear peptides of protein X4 of SARS-CoV Urbani [3]: 0.7
- Binding of serum SARS-yellow to looped/cyclic peptides of protein X4 of SARS-CoV Urbani [3]: 0.4

Sequence: PETNILLNVPLRGTI
- Binding of Control Serum Blood-Bank to Looped peptides of the protein M of SARS-CoV Urbani [1]: 0.8
- Binding of Control serum Blood-bank to linear peptides of the protein M of SARS-CoV Urbani [1]: 0.8
- Binding of Control serum LUMC to linear peptides of the protein M of SARS-CoV Urbani [1]: 0.8
- Binding of Control serum LUMC to looped peptides of the protein M of SARS-CoV Urbani [1]: 0.7
- Rabbit serum linear peptides [2]: 0.1
- Rabbit serum looped peptides [2]: 0.3
- Binding of serum 1a to linear peptides of protein M of SARS-CoV Urbani [3]: 0.8
- Binding of serum 1a to looped/cyclic peptides of protein M of SARS-CoV Urbani [3]: 0.6
- Binding of serum 1b to linear peptides of protein M of SARS-CoV Urbani [3]: 0.6
- Binding of serum 1b to looped/cyclic peptides of protein M of SARS-CoV Urbani [3]: 0.6
- Binding of serum 2 to linear peptides of protein M of SARS-CoV Urbani [3]: 0.7
- Binding of serum 2 to looped/cyclic peptides of protein M of SARS-CoV Urbani [3]: 0.7
- Binding of serum 6 to linear peptides of protein M of SARS-CoV Urbani [3]: 0.4
- Binding of serum 6 to looped/cyclic peptides of protein M of SARS-CoV Urbani [3]: 0.9
- Binding of serum 37 to linear peptides of protein M of SARS-CoV Urbani [3]: 0.9
- Binding of serum 37 to looped/cyclic peptides of protein M of SARS-CoV Urbani [3]: 0.8
- Binding of serum 62 to linear peptides of protein M of SARS-CoV Urbani [3]: 0.5
- Binding of serum 62 to looped/cyclic peptides of protein M of SARS-CoV Urbani [3]: 0.8
- Binding of serum London to linear peptides of protein M of SARS-CoV Urbani [3]: 0.4
- Binding of serum London to looped/cyclic peptides of protein M of SARS-CoV Urbani [3]: 0.3
- Binding of serum SARS-green to linear peptides of protein M of SARS-CoV Urbani [3]: 0.5
- Binding of serum SARS-green to looped/cyclic peptides of protein M of SARS-CoV Urbani [3]: 0.0
- Binding of serum SARS-yellow to linear peptides of protein M of SARS-CoV Urbani [3]: 0.3
- Binding of serum SARS-yellow to looped/cyclic peptides of protein M of SARS-CoV Urbani [3]: 0.6

Reference: patent US20070128217A1 (priority 2003, published 2007)
